In patent US10071957B2, “N-substituted benzamides and methods of use thereof” (GENENTECH, INC., priority 2012, dated 2018):

What was measured:
[1] = target: T1, hNaV1.7 (Homo sapiens (Human), UniProt Q15858); test: Patch voltage clamp electrophysiology, inactivated state block of NaV1.7 in HEK-293 cells; assay type: cell-based; conditions: HEK cells with β1 subunit, read-out: hNaV 1.7 IC50
Description: Patch voltage clamp electrophysiology allows for the direct measurement and quantification of block of voltage-gated sodium channels (NaV's), and allows the determination of the time- and voltage-dependence of block which has been interpreted as differential binding to the resting, open, and inactivated states of the sodium channel (Hille, B., Journal of General Physiology (1977), 69: 497-515).
The following patch voltage clamp electrophysiology studies were performed on representative compounds of the invention using human embryonic kidney cells (HEK), permanently transfected with an expression vector containing the full-length cDNA coding for the desired human sodium channel α-subunit, grown in culture media containing 10% FBS, 1% PSG, and 0.5 mg/mL G418 at 37° C. with 5% CO2. […] NaV1.7 and NaV1.5 cDNAs (NM_002977 and AC137587; SCN5A, respectively) were stably expressed in HEK-293 cells. The β1 subunit was coexpressed in both the NaV1.7 and NaV1.5 cell lines.
Sodium currents were measured using the patch clamp technique in the whole-cell configuration using either a PatchXpress automated voltage clamp or manually using an Axopatch 200B (Axon Instruments) or Model 2400 (A-M systems) amplifier. The manual voltage clamp protocol was as follows:
The pipette was filled with a solution comprised of: 5 mM NaCl, 10 mM CsCl, 120 mM CsF, 0.1 mM CaCl2, 2 mM MgCl2, 10 mM HEPES, 10 mM EGTA; and adjusted to pH 7.2 with CsOH. The external solution had the following composition: 140 mM NaCl, 5 mM KCl, 2 mM CaCl2, 1 mM MgCl2, 10 mM HEPES; and adjusted to pH 7.4 with NaOH. In some studies, the external sodium was reduced by equimolar replacement with choline. Osmolarity in the CsF internal and NaCl external solutions was adjusted to 300 mOsm/kg and 310 mOsm/kg with glucose, respectively. All recordings were performed at ambient temperature in a bath chamber with a volume of 150 μL. Control sodium currents were measured in 0.5% DMSO. Controls and representative compounds of the invention were applied to the recording chamber through a 4-pinch or 8-pinch valve bath perfusion system manufactured by ALA Scientific Instruments.
Currents were recorded at 40 kHz sampling frequency, filtered at […], and stored using a Digidata-1322A analogue/digital interface with the pClamp software (Axon Instruments). Series resistance compensation was applied (60-80%). […] All statistics in this study are given as mean±SD.
The membrane potential was maintained at a voltage where inactivation of the channel is complete (which was −60 mV for both NaV1.7 and NaV1.5). […] The percent decrease in sodium current following wash-on of compound was taken as the percent block of sodium channels.

[2] = target: T1, hNaV1.7; test: Competitive binding of tritiated compound to membranes from cells expressing hNav1.7 and the β1 subunit; conditions: 100 pM [3H]compound, 18 h, room temperature; read-out: NaV1.7 395 Membrane Binding IC50
Description: Tritiated compound binding to membranes isolated from cells that heterologously express hNav1.7 and the β1 subunit
Preparation of membranes containing recombinantly expressed sodium channels: Frozen recombinant cell pellets were thawed on ice and diluted to 4 times the cell pellet weight with ice cold 50 mM Tris HCl, pH 7.4 buffer. The cell suspensions were homogenized on ice using a motorized glass dounce homogeniser. Homogenates were further diluted 8.4 times with ice cold 50 mM Tris HCl, pH 7.4 buffer and then centrifuged at 200×g at 4° C. for 15 min. The supernatants were collected and centrifuged at 10000×g at 4° C. for 50 min. The pellets were then re-suspended in 100 mM NaCl, 20 mM Tris HCl, pH 7.4 buffer containing 1% v/v protease inhibitors (Calbiochem) and re-homogenized on ice. The homogenized membranes were then processed through a syringe equipped with a 26 gauge needle. Protein concentrations were determined by Bradford Assay and the membranes were stored at −80° C.
Radioligand Binding Studies: Saturation experiments. A representative compound of formula (I) was tritiated. Three tritiums were incorporated in place of methyl hydrogens to generate [^3H]compound. Binding of this radioligand was performed in 5 mL borosilicate glass test tubes at room temperature. Binding was initiated by adding membranes to increasing concentrations of [^3H]compound in 100 mM NaCl, 20 mM Tris HCl, pH 7.4 buffer containing 0.01% w/v bovine serum albumin (BSA) for 18 h. Non-specific binding was determined in the presence of 1 μM unlabelled compound. After 18 h, the reactants were filtered through GF/C glass fiber filters presoaked in 0.5% w/v polyethylene imine. Filters were washed with 15 mL ice cold 100 mM NaCl, 20 mM Tris HCl, pH 7.4 buffer containing 0.25% BSA to separate bound from free ligand. [^3H]compound bound to filters was quantified by liquid scintillation counting.
Competitive binding experiments. Binding reactions were performed in 96-well polypropylene plates at room temperature for 18 h. In 360 μL, membranes were incubated with 100 pM [^3H]compound and increasing concentrations of Test Compound. Non-specific binding was defined in the presence of 1 μM unlabelled compound. Reactions were transferred and filtered through 96-well glass fiber/C filter plates presoaked with 0.5% polyethylene imine. The filtered reactions were washed 5 times with 200 μL ice cold buffer containing 0.25% BSA. Bound radioactivity was determined by liquid scintillation counting.
Data Analysis: For saturation experiments, non-specific binding was subtracted from total binding to provide specific binding and these values were recalculated in terms of pmol ligand bound per mg protein. Saturation curves were constructed and dissociation constants were calculated using the single site ligand binding model: Beq=(Bmax*X)/(X+Kd), where Beq is the amount of ligand bound at equilibrium, Bmax is the maximum receptor density, Kd is the dissociation constant for the ligand, and X is the free ligand concentration. For competition studies percent inhibition was determined and IC50 values were calculated using a 4 parameter logistic model (% inhibition=(A+((B−A)/(1+((x/C)^D)))) using XLfit, where A and B are the maximal and minimum inhibition respectively, C is the IC50 concentration and D is the (Hill) slope.

T1 sequence (Q15858 whole entry, looked up): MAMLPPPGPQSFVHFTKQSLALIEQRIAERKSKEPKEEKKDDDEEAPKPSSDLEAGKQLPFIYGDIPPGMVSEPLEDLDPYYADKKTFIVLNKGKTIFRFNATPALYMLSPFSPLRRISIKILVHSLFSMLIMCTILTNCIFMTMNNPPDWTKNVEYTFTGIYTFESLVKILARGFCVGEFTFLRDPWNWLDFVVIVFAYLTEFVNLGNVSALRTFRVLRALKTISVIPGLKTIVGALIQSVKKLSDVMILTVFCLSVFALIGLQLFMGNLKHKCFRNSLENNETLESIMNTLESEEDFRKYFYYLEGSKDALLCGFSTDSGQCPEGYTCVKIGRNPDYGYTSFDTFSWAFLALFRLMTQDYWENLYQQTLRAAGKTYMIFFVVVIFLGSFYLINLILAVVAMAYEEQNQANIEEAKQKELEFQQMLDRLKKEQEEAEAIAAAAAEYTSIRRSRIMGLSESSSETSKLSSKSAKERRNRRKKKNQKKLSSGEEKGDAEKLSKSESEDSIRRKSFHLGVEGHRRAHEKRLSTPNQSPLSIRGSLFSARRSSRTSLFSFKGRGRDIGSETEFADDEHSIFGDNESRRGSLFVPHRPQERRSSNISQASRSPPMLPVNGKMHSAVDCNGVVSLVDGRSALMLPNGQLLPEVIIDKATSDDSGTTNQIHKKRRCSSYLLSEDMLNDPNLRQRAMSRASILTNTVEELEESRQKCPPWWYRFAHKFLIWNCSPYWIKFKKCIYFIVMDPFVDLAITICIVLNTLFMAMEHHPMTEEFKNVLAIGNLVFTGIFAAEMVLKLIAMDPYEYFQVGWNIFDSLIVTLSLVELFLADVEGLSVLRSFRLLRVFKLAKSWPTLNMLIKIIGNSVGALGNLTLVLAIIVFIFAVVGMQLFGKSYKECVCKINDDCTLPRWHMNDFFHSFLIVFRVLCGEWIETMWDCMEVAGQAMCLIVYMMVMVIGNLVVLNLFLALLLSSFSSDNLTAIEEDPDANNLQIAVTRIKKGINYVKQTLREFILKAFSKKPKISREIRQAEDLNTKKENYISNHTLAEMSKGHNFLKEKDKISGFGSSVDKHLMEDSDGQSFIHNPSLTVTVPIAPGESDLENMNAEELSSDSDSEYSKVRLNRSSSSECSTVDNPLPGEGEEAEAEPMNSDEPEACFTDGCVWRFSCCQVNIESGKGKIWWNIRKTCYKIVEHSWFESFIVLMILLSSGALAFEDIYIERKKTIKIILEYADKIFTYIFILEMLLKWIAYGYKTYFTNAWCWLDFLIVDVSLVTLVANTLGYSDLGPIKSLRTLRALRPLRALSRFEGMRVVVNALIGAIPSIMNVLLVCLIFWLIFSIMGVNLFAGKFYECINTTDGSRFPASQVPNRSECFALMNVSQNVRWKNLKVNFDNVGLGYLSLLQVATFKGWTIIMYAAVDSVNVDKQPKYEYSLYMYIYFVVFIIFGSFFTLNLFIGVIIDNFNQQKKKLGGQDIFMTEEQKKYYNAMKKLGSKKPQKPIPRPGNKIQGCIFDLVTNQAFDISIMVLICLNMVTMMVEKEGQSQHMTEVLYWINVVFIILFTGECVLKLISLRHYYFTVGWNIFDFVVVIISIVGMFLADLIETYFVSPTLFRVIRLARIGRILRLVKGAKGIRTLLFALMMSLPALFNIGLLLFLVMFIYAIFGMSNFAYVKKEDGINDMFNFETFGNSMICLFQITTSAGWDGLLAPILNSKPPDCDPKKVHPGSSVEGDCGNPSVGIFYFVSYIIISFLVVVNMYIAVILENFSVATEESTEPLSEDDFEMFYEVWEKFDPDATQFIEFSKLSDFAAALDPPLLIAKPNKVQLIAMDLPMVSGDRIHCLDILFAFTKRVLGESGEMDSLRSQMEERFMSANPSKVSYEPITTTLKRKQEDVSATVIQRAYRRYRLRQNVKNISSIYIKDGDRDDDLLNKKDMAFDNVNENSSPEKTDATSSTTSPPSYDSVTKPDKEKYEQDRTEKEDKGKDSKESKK
T1 sequence (Q07699 whole entry partner, looked up): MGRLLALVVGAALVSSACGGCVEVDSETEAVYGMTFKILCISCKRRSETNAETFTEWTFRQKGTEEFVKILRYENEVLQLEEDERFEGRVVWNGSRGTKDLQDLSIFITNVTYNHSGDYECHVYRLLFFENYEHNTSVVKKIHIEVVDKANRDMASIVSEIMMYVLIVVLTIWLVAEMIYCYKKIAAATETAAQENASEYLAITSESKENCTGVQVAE

Row | IC50 [1] [µM] | IC50 [2] [µM] | Structure (SMILES)
1 | 0.0043 | 0.011 | C=Cc1cc(C(=O)NS(=O)(=O)N2CCC2)c(F)cc1Oc1cnc(OCC(F)(F)F)c(Cl)c1 [Preparation 92]
2 | 0.034 | 0.0478 | CN(C)S(=O)(=O)NC(=O)c1cc(Cl)c(Oc2cnc(OCC(F)(F)C(F)F)c(Cl)c2)cc1F [Preparation 30, 5-chloro-4-(5-chloro-6-(2,2,3,3-tetrafluoro-propoxy)pyridin-3-yloxy)-N-(N,N-dimethylsulfamoyl)-2-fluorobenzamide]
3 | 0.0116 | 0.028 | CNS(=O)(=O)NC(=O)c1cc(Cl)c(COc2ccc(Cl)c(Cl)c2)cc1F [Preparation 80]
4 | 0.041 | 0.218 | CN(C)S(=O)(=O)NC(=O)c1cc(Cl)c(Oc2ccc(OC(F)(F)F)c(Cl)c2)cc1F [Preparation 12, 5-chloro-4-(3-chloro-4-(trifluoromethoxy)phenoxy)-N-(N,N-dimethylsulfamoyl)-2-fluorobenzamide]
5 | 0.226 | 2 | NS(=O)(=O)NC(=O)c1cc(Cl)c(Oc2ccc(OC(F)(F)F)c(Cl)c2)cc1F [Preparation 10, 5-chloro-4-(3-chloro-4-(trifluoromethoxy)phenoxy)-2-fluoro-N-sulfamoyl-benzamide]
6 | 0.0061 | 0.043 | CC(C)Oc1ncc(OCc2cc(F)c(C(=O)NS(=O)(=O)N3CCC3)cc2Cl)cc1Cl [Preparation 82]
7 | 0.0343 | 0.22 | CN(C)S(=O)(=O)NC(=O)c1cc(Cl)c(COc2cnc(OCC(F)(F)C(F)F)c(Cl)c2)cc1F [Preparation 76]
8 | 0.015 | 0.145 | CNS(=O)(=O)NC(=O)c1cc(Cl)c(Oc2ccc(OC(F)(F)F)c(Cl)c2)cc1F [Preparation 11, 5-chloro-4-(3-chloro-4-(trifluoromethoxy)phenoxy)-2-fluoro-N-(N-methyl-sulfamoyl)benzamide]
9 | 0.271 | 1.25 | CN(C)S(=O)(=O)NC(=O)c1cc(Cl)c(OCc2ccc(Cl)c(Cl)c2)cc1F [Preparation 23, 5-chloro-4-((3,4-dichlorobenzyl)oxy)-N-(N,N-dimethyl-sulfamoyl)-2-fluoro-benzamide]

The next lines start with the molecule.

Row | Structure (SMILES) | IC50 [1] [µM] | IC50 [2] [µM]
10 | CC(C)COc1ncc(Oc2cc(F)c(C(=O)NS(=O)(=O)N3CCc4ccccc43)cc2Cl)cc1Cl [Preparation 25, 5-chloro-4-((5-chloro-6-isobutoxypyridin-3-yl)oxy)-2-fluoro-N-(indolin-1-yl-sulfonyl)benzamide] | 0.19 | 0.388
11 | NS(=O)(=O)NC(=O)c1cc(Cl)c(Oc2ccc(Cl)c(C(F)(F)F)c2)cc1F [Preparation 7, 5-chloro-4-(4-chloro-3-(trifluoromethyl)phenoxy)-2-fluoro-N-sulfamoyl-benzamide] | 0.19 | 1.13
12 | CN(C)S(=O)(=O)NC(=O)c1cc(Cl)c(COc2ccc(Cl)c(Cl)c2)cc1F [Preparation 5, 5-chloro-4-((3,4-dichlorophenoxy)methyl)-N-(N,N-dimethylsulfamoyl)-2-fluorobenzamide] | 0.019 | 0.174
13 | CC(C)COc1ncc(Oc2cc(F)c(C(=O)NS(=O)(=O)Nc3ccc(C#N)cc3)cc2Cl)cc1Cl [Preparation 21, 5-chloro-4-((5-chloro-6-isobutoxypyridin-3-yl)oxy)-N-(N-(4-cyanophenyl)sulfamoyl)-2-fluoro-benzamide] | 0.828 | 2.94
14 | CNS(=O)(=O)NC(=O)c1cc(Cl)c(Oc2ccc(Cl)c(C(F)(F)F)c2)cc1F [Preparation 8, 5-chloro-4-(4-chloro-3-(trifluoromethyl)phenoxy)-2-fluoro-N-(N-methyl-sulfamoyl)benzamide] | 0.022 | 0.109
15 | CC(C)COc1ncc(Oc2cc(F)c(C(=O)NS(=O)(=O)N(C)C(C)C)cc2Cl)cc1Cl [Preparation 17, 5-chloro-4-((5-chloro-6-isobutoxypyridin-3-yl)oxy)-2-fluoro-N-(N-isopropyl-N-methylsulfamoyl) benzamide] | 0.125 | 0.123
16 | CC(C)COc1ncc(Oc2cc(F)c(C(=O)NS(=O)(=O)c3cccnc3)cc2Cl)cc1Cl [Preparation 28, 5-chloro-4-((5-chloro-6-isobutoxypyridin-3-yl)oxy)-2-fluoro-N-(pyridin-3-yl-sulfonyl)benzamide] | 0.057 | 0.703
17 | CC(C)COc1ncc(Oc2cc(F)c(C(=O)NS(=O)(=O)c3cn(C)cn3)cc2Cl)cc1Cl [Preparation 24, 5-chloro-4-((5-chloro-6-isobutoxypyridin-3-yl)oxy)-2-fluoro-N-((1-methyl-1H-imidazol-4-yl)sulfonyl)benzamide] | 0.034 | 0.578
18 | CC(C)COc1ncc(Oc2cc(F)c(C(=O)NS(=O)(=O)N3CCCC3)cc2Cl)cc1Cl [Preparation 14, 5-chloro-4-((5-chloro-6-isobutoxypyridin-3-yl)oxy)-2-fluoro-N-(pyrrolidin-1-ylsulfonyl)benzamide] | 0.044 | 0.0301
19 | CC(C)COc1ncc(Oc2cc(F)c(C(=O)NS(=O)(=O)N3CCCCC3)cc2Cl)cc1Cl [Preparation 15, 5-chloro-4-((5-chloro-6-isobutoxypyridin-3-yl)oxy)-2-fluoro-N-(piperidin-1-ylsulfonyl)benzamide] | 0.064 | 0.0584
20 | CC(C)COc1ncc(Oc2cc(F)c(C(=O)NS(N)(=O)=O)cc2Cl)cc1Cl [Preparation 4, 5-chloro-4-((5-chloro-6-isobutoxypyridin-3-yl)oxy)-2-fluoro-N-sulfamoylbenzamide] | 0.009 | 0.0708
21 | CN(C)S(=O)(=O)NC(=O)c1cc(Cl)c(Oc2ccc(Cl)c(C(F)(F)F)c2)cc1F [Preparation 1, 5-chloro-4-(4-chloro-3-(trifluoromethyl)phenoxy)-N-(N,N-dimethylsulfamoyl)-2-fluorobenzamide] | 0.053 | 0.253
22 | CC(C)COc1ncc(Oc2cc(F)c(C(=O)NS(=O)(=O)N3CCCCCC3)cc2Cl)cc1Cl [Preparation 16, N-(azepan-1-ylsulfonyl)-5-chloro-4-((5-chloro-6-isobutoxypyridin-3-yl)oxy)-2-fluorobenzamide] | 0.073 | 0.542
